This is an account of results in patent publication US10213415B2, “Compounds as opioid receptor modulators” (JANSSEN PHARMACEUTICA NV, priority 2004, dated 2019).

One test concerns the target T1, delta opioid receptor (Rattus norvegicus, UniProt P33533).
T1 construct: from tissue; host or cells: forebrain of male Wistar rats
Description: Rat Brain Delta Opioid Receptor Binding Assay ([3H]DPDPE). Particulars: rat forebrain membranes, margin of error 10-20%, read-out: r Ki δ. On the procedure: (§1) Male, Wistar rats (150-250 g, VAF, Charles River, Kingston, N.Y.) are killed by cervical dislocation, and their brains removed and placed immediately in ice cold Tris HCl buffer (50 mM, pH 7.4). The forebrains are separated from the remainder of the brain by a coronal transection, beginning dorsally at the colliculi and passing ventrally through the midbrain-pontine junction. After dissection, the forebrains are homogenized in Tris buffer in a Teflon® glass homogenizer. The homogenate is diluted to a concentration of 1 g of forebrain tissue per 80 mL Tris and centrifuged at 39,000×g for 10 min. The pellet is resuspended in the same volume of Tris buffer containing 5 mM MgCl2 with several brief pulses from a Polytron homogenizer. This particulate preparation is used for the delta opioid binding assays. Following incubation with the delta selective peptide ligand ˜4 nM [^3H]DPDPE at 25° C. for 2.5 h in a 96-well plate with total volume of 1 mL, the plate contents are filtered through Wallac filtermat B sheets on a Tomtec 96-well harvester. The filters are rinsed three times with 2 mL of 10 mM HEPES (pH 7.4), and dried in a microwave oven 2 min twice. To each sample area 2×50 μL of Betaplate Scint scintillation fluid (LKB) is added and analyzed on a LKB (Wallac) 1205 BetaPlate liquid scintillation counter.
The data are used to calculate either the % inhibition compared to control binding (when only a single concentration of test compound is evaluated) or a Ki value (when a range of concentrations is tested). % inhibition is calculated as: [(total dpm−test compound dpm)/(total dpm−nonspecific dpm)]*100. Kd and Ki values were calculated using GraphPad PRISM data analysis program.

A further test deals with T2, mu opioid receptor (Rattus norvegicus, UniProt P33535).
T2 construct: from tissue; host or cells: forebrain of male Wistar rats
Description: Rat Brain Mu Opioid Receptor Binding Assay (and Version 2a, [3H]DAMGO). The conditions noted are these: rat forebrain membranes, margin of error 10-20%, read-out: r Ki μ. On the procedure:
as §1, with “mu-opioid” for “delta opioid”, “Following incubation with the delta selective peptide ligand ˜4 nM [^3H]DPDPE at 25° C. for 2.5 h in a 96-well plate with total volume of 1 mL, the plate contents are filtered through Wallac filtermat B sheets on a Tomtec 96-well harvester.” left out, “(pH7.4),” for “(pH 7.4),”
The data are used to calculate either the % inhibition compared to control binding (when only a single concentration of test compound is evaluated) or a Ki value (when a range of concentrations is tested). % inhibition is calculated as: [(total dpm-test compound dpm)/(total dpm-nonspecific dpm)]*100. Kd and Ki values were calculated using GraphPad PRISM data analysis program.
Male, Wistar rats (150-250 g, VAF, Charles River, Kingston, N.Y.) were killed by cervical dislocation, and their brains removed and placed immediately in ice-cold Tris HCl buffer (50 mM, pH 7.4). The forebrains were separated from the remainder of the brain by a coronal transection, beginning dorsally at the colliculi and passing ventrally through the midbrain-pontine junction. After dissection, the forebrains were homogenized in Tris buffer in a Teflon®-glass homogenizer. The homogenate was diluted to a concentration of 1 g of forebrain tissue per 80 mL Tris and centrifuged at 39,000×g for 10 min. The pellet was resuspended in the same volume of Tris buffer containing 5 mM MgCl2 with several brief pulses from a Polytron homogenizer. This particulate preparation was used for the mu opioid binding assay. Following incubation with 0.8 nM of the mu selective ligand [^3H]DAMGO at 25° C. for 2.5 h in a 96-well plate with total 1 mL, the plate contents were filtered through Wallac filtermat B sheets on a Tomtec 96-well harvester. The filters were rinsed three times with 2 mL of 10 mM HEPES (pH 7.4), and dried in a microwave oven. To each sample area, Betaplate Scint scintillation fluid (LKB) was added and the resulting radioactivity quantified on a LKB (Wallac) 1205 BetaPlate liquid scintillation counter. Kd and Ki values were calculated using the GraphPad PRISM data analysis program.

The target of the next test is T3, human mu opioid receptor (Homo sapiens, UniProt P35372).
T3 construct: purchased Perkin Elmer RBHOMM400UA; host or cells: Chinese Hamster Ovary cells (recombinant expression)
In words: Human Mu Opioid Receptor Binding Assay (CHO membranes, 3H-Damgo). Particulars: read-out: hKi μ. The procedure, abridged:
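Membranes from CHO cells expressing human mu opioid receptor, 300 μg/mL, in 50 mM Tris pH 7.5, 5 mM MgCl2. Incubated with compound and ³H-Damgo (3.6 nM before mixing) for 2 h at room temperature, filtered, counted by scintillation. Nonspecific binding with 1 μM unlabelled Damgo.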

In test [1] the target is T4, mu opioid receptor (CHO-hMOR cell membranes) (Homo sapiens, UniProt P35372).
T4 construct: purchased Receptor Biology, Inc. (Baltimore, Md.); host or cells: CHO cells (recombinant expression)
Description: Mu Opioid Receptor Functional Assay: [35S]GTPγS Binding in CHO-hMOR Cell Membranes, Versions 1 and 2. Format: biochemical. The conditions noted are these: for MOR GTP binding assay_v1 (% I): version 1, % inhibition of agonist-stimulated GTPγS binding; for MOR GTP assay_v1 % of Basal: version 1, basal binding = 100%. On the procedure: CHO-hMOR cell membranes were purchased from Receptor Biology, Inc. (Baltimore, Md.). About 10 mg/ml of membrane protein was suspended in 10 mM TRIS-HCl pH 7.2, 2 mM EDTA, 10% sucrose, and the suspension kept on ice. One ml of membranes was added to 15 ml cold binding assay buffer containing 50 mM HEPES, pH 7.6, 5 mM MgCl2, 100 mM NaCl, 1 mM DTT and 1 mM EDTA. The membrane suspension was homogenized with a Polytron and centrifuged at 3,000 rpm for 10 min. The supernatant was then centrifuged at 18,000 rpm for 20 min. The pellet was resuspended in 10 ml assay buffer with a Polytron.
The membranes were preincubated with wheat germ agglutinin coated SPA beads (Amersham) at 25° C. for 45 min in the assay buffer. The SPA bead (5 mg/ml) coupled membranes (10 μg/ml) were then incubated with 0.5 nM [^35S]GTPγS in the assay buffer. […] A range of concentrations of receptor agonists was used to stimulate [^35S]GTPγS binding. Both basal and non-specific binding was tested in the absence of agonist; non-specific binding determination included 10 μM unlabeled GTPγS.
Compounds were tested for function as antagonists by evaluating their potential to inhibit agonist-stimulated GTPγS binding. Radioactivity was quantified on a Packard TopCount. The following parameters were calculated:
[formula] % Inhibition=(% stimulation by 1 μM SNC80−% stimulation by 1 μM SNC80 in presence of test compound)×100/(% Stimulation by 1 μM SNC80−100)
EC50 values were calculated using GraphPad Prism.
On the technique in general: GTPγS is a poorly hydrolysed GTP analogue; its binding reports G protein activation.

T3 sequence (P35372 whole entry): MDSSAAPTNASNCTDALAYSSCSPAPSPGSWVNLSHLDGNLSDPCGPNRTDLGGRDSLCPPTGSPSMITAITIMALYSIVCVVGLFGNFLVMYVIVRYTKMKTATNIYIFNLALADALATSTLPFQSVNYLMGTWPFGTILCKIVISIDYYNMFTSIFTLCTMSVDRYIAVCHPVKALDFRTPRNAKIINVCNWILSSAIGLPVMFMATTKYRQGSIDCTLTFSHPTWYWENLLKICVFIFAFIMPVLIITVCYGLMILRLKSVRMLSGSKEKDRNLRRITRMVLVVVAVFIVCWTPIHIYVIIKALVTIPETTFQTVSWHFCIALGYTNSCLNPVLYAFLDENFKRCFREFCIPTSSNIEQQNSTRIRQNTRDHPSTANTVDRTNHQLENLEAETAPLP
T4 sequence (P35372 whole entry): as above
T1 sequence (P33533 whole entry): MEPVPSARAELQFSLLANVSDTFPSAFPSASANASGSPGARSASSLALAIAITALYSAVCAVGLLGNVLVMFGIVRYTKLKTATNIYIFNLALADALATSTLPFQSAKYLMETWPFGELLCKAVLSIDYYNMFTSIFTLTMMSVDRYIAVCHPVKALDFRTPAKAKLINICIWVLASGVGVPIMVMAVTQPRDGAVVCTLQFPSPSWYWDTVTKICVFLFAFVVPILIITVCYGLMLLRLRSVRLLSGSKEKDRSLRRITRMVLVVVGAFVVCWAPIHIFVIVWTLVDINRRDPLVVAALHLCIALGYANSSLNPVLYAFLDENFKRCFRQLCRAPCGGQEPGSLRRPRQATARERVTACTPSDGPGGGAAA
T2 sequence (P33535 whole entry): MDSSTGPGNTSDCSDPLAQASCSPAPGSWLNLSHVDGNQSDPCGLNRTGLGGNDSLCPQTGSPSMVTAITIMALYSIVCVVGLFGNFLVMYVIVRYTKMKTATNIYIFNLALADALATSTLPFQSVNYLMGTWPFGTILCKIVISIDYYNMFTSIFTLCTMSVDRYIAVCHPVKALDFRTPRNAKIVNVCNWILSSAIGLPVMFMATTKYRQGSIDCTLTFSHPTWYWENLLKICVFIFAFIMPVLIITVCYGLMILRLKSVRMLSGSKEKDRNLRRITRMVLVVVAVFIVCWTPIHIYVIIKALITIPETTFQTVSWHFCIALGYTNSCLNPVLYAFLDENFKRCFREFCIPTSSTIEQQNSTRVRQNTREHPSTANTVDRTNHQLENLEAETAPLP

For `COC(=O)c1cc(CN(C(=O)[C@@H](N)Cc2ccc(C(N)=O)cc2)[C@H](C)c2nc(-c3ccccc3)c[nH]2)ccc1OC` [Cpd 281], the Ki at delta opioid receptor is 721 nM; on mu opioid receptor, 399 nM.
As for `COc1ccc(CN(C(=O)[C@@H](N)Cc2ccc(O)cc2)[C@@H](C)c2nc(-c3ccccc3)c[nH]2)cc1C(N)=O` [Cpd 297], the Ki was determined as 44 nM at delta opioid receptor and 0.11 nM at mu opioid receptor.
The matching figures for `COc1ccc(CN(C(=O)[C@@H](N)Cc2c(C)cccc2C)[C@@H](C)c2nc(-c3ccccc3)c[nH]2)cc1C(=O)O` [Cpd 292]: 100 nM and 0.65 nM.
The matching figures for `COC(=O)c1cc(CN(C(=O)[C@H](N)Cc2ccc(C(N)=O)cc2)[C@H](C)c2nc(-c3ccccc3)c[nH]2)ccc1OC` [Cpd 284]: 1530 nM and 1030 nM.
`COc1ccc(CN(Cc2nc(-c3ccccc3)c[nH]2)C(=O)[C@@H](N)Cc2c(C)cc(C(N)=O)cc2C)cc1C(=O)O` [Cpd 6]: the figures for the Ki on delta opioid receptor and at human mu opioid receptor were 1.7 nM and 2 nM, respectively.
For the compound `Cc1cc(O)cc(C)c1C[C@H](N)C(=O)N[C@H](c1nc(-c2ccccc2)c[nH]1)C(C)C` [Cpd 187], the Ki was 5200 nM at delta opioid receptor and 121 nM at mu opioid receptor.
`CC(C)[C@H](NC(=O)[C@@H](N)Cc1cccc(C(N)=O)c1)c1nc(-c2ccccc2)c[nH]1` [Cpd 185]: the results for the Ki on delta opioid receptor and at mu opioid receptor were 182 nM and 6720 nM, respectively.
`COc1ccc(CN(C(=O)[C@@H](N)Cc2c(C)cc(C(N)=O)cc2C)[C@H](C)c2nc(-c3ccc(Cl)cc3)c(C)[nH]2)cc1C(=O)O` [Cpd 278]: the values for the Ki on delta opioid receptor and on mu opioid receptor were 49 nM and 12 nM, respectively.
As to `COC(=O)c1cc(CN(C(=O)[C@@H](N)Cc2c(C)cc(C(N)=O)cc2C)[C@H](C)c2nc(-c3ccccc3)c[nH]2)ccc1OC` [Cpd 280], the Ki was 32 nM on delta opioid receptor and 3 nM on mu opioid receptor.
Take `C[C@H](NC(=O)[C@@H](N)Cc1ccc(O)cc1)c1nc(-c2ccccc2)c[nH]1` [Cpd 213]: the figures for the Ki at delta opioid receptor, at mu opioid receptor and at human mu opioid receptor were 5660 nM, 1260 nM and greater than 1000 nM, respectively.
Consider `Cc1cc(O)cc(C)c1C[C@H](N)C(=O)N(Cc1nc(-c2ccccc2)c[nH]1)C(C)CN(C)C` (stereo partly drawn) [Cpd 167], for which the Ki on mu opioid receptor came to 3.15 nM; at human mu opioid receptor it was 4.2 nM. Besides, the “MOR GTP binding assay_v1 (% I)” value in test [1] was 17.00%. Also, the “MOR GTP assay_v1 % of Basal” value in test [1] turned out to be 780.00%.
For the compound `CC(C)[C@H](NC(=O)[C@@H](N)Cc1ccc(O)cc1)c1nc(-c2ccccc2)c[nH]1` [Cpd 188], the Ki at delta opioid receptor is 541 nM; on mu opioid receptor, 307 nM.
As to `CNC(=O)c1cc(C)c(C[C@H](N)C(=O)N(C)[C@H](C)c2nc(-c3ccccc3)c[nH]2)c(C)c1` [Cpd 184], the Ki on mu opioid receptor is 19.5 nM. In test [1], the “MOR GTP binding assay_v1 (% I)” value came to 13.00% and the “MOR GTP assay_v1 % of Basal” value stood at 862.00%.
Turning to `CC(C)[C@@H](c1nc(-c2ccccc2)c[nH]1)N(C)C(=O)[C@@H](N)Cc1ccc(O)cc1` [Cpd 171], the Ki on mu opioid receptor was found to be 141 nM.
Turning to `C[C@@H](NC(=O)[C@@H](N)Cc1ccc(O)cc1)c1nc(-c2ccccc2)c[nH]1` [Cpd 212], the Ki stood at 1280 nM on delta opioid receptor, 103 nM on mu opioid receptor and 55 nM on human mu opioid receptor.
With `CC(C)C[C@@H](c1nc(-c2ccccc2)c[nH]1)N(C)C(=O)[C@@H](N)Cc1cccc(C(N)=O)c1` [Cpd 168], the Ki on delta opioid receptor came out at 8870 nM; on mu opioid receptor, 5320 nM.
The matching figures for `COc1ccc(CN(C(=O)[C@@H](N)Cc2ccc(O)cc2)[C@@H](C)c2nc(-c3ccc(Cl)cc3)c(C)[nH]2)cc1C(=O)O` [Cpd 293]: 3170 nM and 646 nM.
In the case of `CC(C)C[C@@H](c1nc(-c2ccccc2)c[nH]1)N(C)C(=O)[C@@H](N)Cc1cccc(C#N)c1` [Cpd 169], on mu opioid receptor, the Ki turned out to be 853 nM.
In the case of `COc1ccc(CN(C(=O)[C@@H](N)Cc2ccc(O)cc2)[C@@H](C)c2nc(-c3ccccc3)c[nH]2)cc1C(=O)N1CCOCC1` [Cpd 298], the Ki at delta opioid receptor turned out to be 44 nM; at mu opioid receptor it was 0.3 nM.
For `CC(C)[C@H](NC(=O)[C@@H](N)Cc1cccc(C#N)c1)c1nc(-c2ccccc2)c[nH]1` [Cpd 186], the Ki at delta opioid receptor was found to be 515 nM; on mu opioid receptor, 5310 nM.
Consider `C[C@@H](c1nc(-c2ccccc2)c[nH]1)N(C)C(=O)[C@@H](N)Cc1ccc(S(N)(=O)=O)cc1` [Cpd 189], for which the Ki on delta opioid receptor was 360 nM; at mu opioid receptor, 277 nM.
Take `CC(C)N(C(=O)[C@@H](N)Cc1ccc(O)cc1)[C@H](C)c1nc(-c2ccccc2)c[nH]1` [Cpd 222]: the Ki at delta opioid receptor came to 394 nM; on mu opioid receptor it was 91.2 nM; on human mu opioid receptor it was 185 nM.
With `Cc1cc(C(N)=O)cc(C)c1C[C@H](N)C(=O)N(Cc1cccc(C(=O)O)c1)[C@@H](C)c1nc(-c2ccc(Cl)cc2)c(C)[nH]1` [Cpd 12], the Ki at delta opioid receptor was found to be 0.08 nM; at human mu opioid receptor, 4.1 nM.
On to `CN[C@@H](Cc1ccc(O)cc1)C(=O)N(Cc1ccc(OC)c(C(=O)O)c1)[C@@H](C)c1nc(-c2ccccc2)c[nH]1` [Cpd 262], for which the Ki on delta opioid receptor stood at 17.5 nM; on mu opioid receptor it was 1.1 nM; at human mu opioid receptor, 3.24 nM.
`Cc1cc(C(=O)N2CCOCC2)cc(C)c1C[C@H](N)C(=O)N(C)[C@H](C)c1nc(-c2ccccc2)c[nH]1` [Cpd 180]: the Ki was found to be 5220 nM at delta opioid receptor and 1210 nM on mu opioid receptor.
For `COC(=O)c1cc(CN(C(=O)[C@@H](N)Cc2ccc(O)cc2)[C@@H](C)c2nc(-c3ccccc3)c[nH]2)ccc1OC` [Cpd 279], the Ki was 5.2 nM on delta opioid receptor and 0.137 nM at mu opioid receptor.
